# Several values for one entry are separate records, joined by “and”; a condition that tells them apart may be missing. Equal values may be shown once.
# Assays:
# AgCPR [1] = target: T1, AgCPR (Anopheles gambiae, UniProt Q86QH5); experiment: Inhibition of cytochrome c reduction by AgCPR; assay type: biochemical
# Procedure: (§3) Measurement of cytochrome c reduction was carried out at 25°C with 50 µM cytochrome c and 0.75 pmol purified AgCPR or hCPR essentially as described [17] using 0.3 M potassium phosphate buffer, pH 7.7 or 0.1 M Tris-HCl, pH 7.7/0.1 M KCl, and different concentrations of 2′, 5′-ADP, 2′-AMP, NADP or diphenyliodonium chloride (all from Sigma-Aldrich, UK).
# [2] = target: methionine synthase reductase; conditions: read-out: low affinity binding mode (Kd); cited from earlier work
# hCPR [3] = target: T2, hCPR (Homo sapiens, UniProt P16435); experiment: Inhibition of cytochrome c reduction by hCPR; assay type: biochemical
# T2 sequence (P16435 43-677 limits assumed): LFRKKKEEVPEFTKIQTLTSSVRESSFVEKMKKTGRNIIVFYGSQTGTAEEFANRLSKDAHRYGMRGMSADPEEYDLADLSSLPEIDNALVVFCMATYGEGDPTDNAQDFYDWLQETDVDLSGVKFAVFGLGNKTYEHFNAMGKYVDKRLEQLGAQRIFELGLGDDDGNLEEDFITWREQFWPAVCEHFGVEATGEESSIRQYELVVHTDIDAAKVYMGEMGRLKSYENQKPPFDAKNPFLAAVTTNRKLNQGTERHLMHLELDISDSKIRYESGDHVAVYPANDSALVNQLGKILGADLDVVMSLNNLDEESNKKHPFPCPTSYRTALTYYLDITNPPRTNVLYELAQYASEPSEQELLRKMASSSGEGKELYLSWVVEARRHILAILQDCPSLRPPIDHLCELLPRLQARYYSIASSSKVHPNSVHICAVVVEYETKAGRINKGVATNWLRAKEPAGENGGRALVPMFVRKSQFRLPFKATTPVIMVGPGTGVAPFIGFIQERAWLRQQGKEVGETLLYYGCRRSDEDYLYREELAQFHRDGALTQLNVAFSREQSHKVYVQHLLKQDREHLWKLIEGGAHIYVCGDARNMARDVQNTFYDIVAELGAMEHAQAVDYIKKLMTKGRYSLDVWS
# Procedure: as §3
# [4] = target: T3, AgCPR (Anopheles gambiae NADPH-cytochrome P450 oxidoreductase) (Anopheles gambiae, UniProt Q86QH5); experiment: Isothermal titration calorimetry of nucleotide ligands with AgCPR; assay type: binding; conditions: for Kobs / TΔS / n (binding stoichiometry) / ΔG / ΔH: 25°C, 100 mM BES pH 7.0
# T3 sequence (Q86QH5 64-679): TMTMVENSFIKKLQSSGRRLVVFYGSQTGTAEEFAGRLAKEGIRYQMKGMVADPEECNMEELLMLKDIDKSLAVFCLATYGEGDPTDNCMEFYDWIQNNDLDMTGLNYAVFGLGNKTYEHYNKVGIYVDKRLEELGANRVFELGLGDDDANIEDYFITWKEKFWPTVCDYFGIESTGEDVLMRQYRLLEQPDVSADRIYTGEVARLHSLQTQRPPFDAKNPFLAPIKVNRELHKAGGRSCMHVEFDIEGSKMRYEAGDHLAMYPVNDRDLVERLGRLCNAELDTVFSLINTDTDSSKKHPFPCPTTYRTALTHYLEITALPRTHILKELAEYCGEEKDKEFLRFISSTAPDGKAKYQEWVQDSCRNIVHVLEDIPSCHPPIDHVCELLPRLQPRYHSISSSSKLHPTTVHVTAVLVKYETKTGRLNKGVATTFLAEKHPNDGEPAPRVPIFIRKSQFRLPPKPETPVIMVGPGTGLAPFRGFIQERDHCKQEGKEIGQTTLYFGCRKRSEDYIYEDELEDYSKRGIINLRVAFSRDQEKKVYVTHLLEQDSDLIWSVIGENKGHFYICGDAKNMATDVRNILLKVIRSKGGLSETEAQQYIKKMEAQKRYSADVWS
# Procedure: (§1) ITC experiments were performed using a ITC200 microcalorimeter (Microcal Inc/GE Healthcare). Protein samples were dialysed into 100 mM BES; pH 7.0 from 50% glycerol stocks stored at −20°C. The concentrations of all the proteins were determined by using Bradford assay. Samples were centrifuged at 13,000×g for 10 min and degassed at 23°C (2°C below the temperature at which the experiments were performed). All experiments were performed at 25°C. Typically, the protein concentration in the cell was 10–20 µM whilst ligand concentrations were in the range of 100–1000 µM. The data analysed using Origin 7.0 (Microcal) after subtracting the heats of dilution obtained from parallel experiments performed by injecting the nucleotide into the buffer. Thermodynamic parameters n (stoichiometry), K d (1/K a, the association constant), and Δ°H (enthalpy change) were obtained by nonlinear least-squares fitting of experimental data using the single-site binding model. The free energy of binding (ΔG°) and entropy change (ΔS°) were obtained using eqs 1 and 2.
# hCPR (human CPR) = target: T4, hCPR (human CPR) (Homo sapiens, UniProt P16435); experiment: Isothermal titration calorimetry of nucleotide ligands with hCPR; assay type: binding; conditions: ITC, 25°C, 100 mM BES pH 7.0
# T4 sequence (P16435 43-677 limits assumed): T2 sequence (P16435 43-677 limits assumed)
# Procedure: as §1
# AgCPR [5] = target: T1, AgCPR; experiment: Inhibition of cytochrome c (50 µM) reduction in 0.3 M potassium phosphate pH 7.7, 25 °C, started with 30 µM NADPH (AgCPR).; assay type: biochemical; parameters: Δ63AgCPR: soluble, membrane anchor (amino acids 2-63) deleted; His-tag removed by thrombin; expressed in E. coli; conditions: SEM; read-out: IC50 µM (±S.E.), Phosphate Buffer
# Procedure: as §3
# AgCPR [6] = target: T1, AgCPR; experiment: Inhibition of cytochrome c (50 µM) reduction in phosphate-free 0.1 M Tris-HCl pH 7.7/0.1 M KCl, 25 °C, started with 12 µM (AgCPR) or 5 µM (hCPR) NADPH.; assay type: biochemical; parameters: Δ63AgCPR: soluble, membrane anchor (amino acids 2-63) deleted; His-tag removed by thrombin; expressed in E. coli; conditions: SEM; read-out: IC50 µM (±S.E.), Tris Buffer
# Procedure: as §3
# hCPR [7] = target: T5, hCPR (Homo sapiens, UniProt P16435); experiment: Isothermal titration calorimetry of oxidised CPR with nucleotides in phosphate-free 100 mM BES, pH 7.0, 25 °C, single-site model; Kd = 1/Kobs.; assay type: binding
# T5 construct: gene POR
# T5 sequence (P16435 64-677): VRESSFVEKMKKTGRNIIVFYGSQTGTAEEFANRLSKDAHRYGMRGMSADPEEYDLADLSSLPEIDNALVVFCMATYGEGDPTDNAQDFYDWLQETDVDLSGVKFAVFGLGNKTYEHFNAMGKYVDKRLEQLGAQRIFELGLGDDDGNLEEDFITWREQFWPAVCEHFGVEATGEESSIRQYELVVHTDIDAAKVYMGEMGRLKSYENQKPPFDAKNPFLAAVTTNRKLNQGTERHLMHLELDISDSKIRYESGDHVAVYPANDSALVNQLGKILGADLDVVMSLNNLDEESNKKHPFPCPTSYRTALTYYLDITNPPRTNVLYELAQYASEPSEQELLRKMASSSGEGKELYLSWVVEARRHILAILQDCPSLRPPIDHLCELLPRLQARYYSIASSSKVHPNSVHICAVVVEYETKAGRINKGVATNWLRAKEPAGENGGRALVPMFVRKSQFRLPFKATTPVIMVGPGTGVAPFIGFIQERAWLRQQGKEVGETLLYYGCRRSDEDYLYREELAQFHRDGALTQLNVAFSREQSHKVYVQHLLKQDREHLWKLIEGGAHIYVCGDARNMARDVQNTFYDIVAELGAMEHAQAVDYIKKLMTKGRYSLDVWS
# Excerpt: Figure 3 represents the ITC binding isotherms resulting from the titration of AgCPR with 2′, 5′-ADP, NADP+ and 2′-AMP.
# hCPR [8] = target: T5, hCPR; experiment: Inhibition of cytochrome c (50 µM) reduction in phosphate-free 0.1 M Tris-HCl pH 7.7/0.1 M KCl, 25 °C, started with 12 µM (AgCPR) or 5 µM (hCPR) NADPH.; assay type: biochemical; conditions: SEM; read-out: IC50 µM (±S.E.), Tris Buffer
# Procedure: as §3
# hCPR [9] = target: T2, hCPR; experiment: Cytochrome c and NADPH steady-state kinetics, hCPR; assay type: biochemical; conditions: phosphate buffer, 50 µM NADPH, 25°C; read-out: Km cytc
# Procedure: (§4) The rate of change of absorbance of horse heart cytochrome c (Sigma-Aldrich, UK) at 550 nm was measured at 25°C using a Cary 4000 UV-Visible spectrophotometer essentially as described [17]. For cytochrome c kinetics, 0.75 pmol purified AgCPR or hCPR was pre-incubated with 0–110 µM cytochrome c (dissolved in 0.3 M potassium phosphate buffer; pH 7.7 or 0.1 M Tris-HCl, pH 7.7/0.1 M KCl) in a total volume of 500 µl for 2 min at 25°C.
# AgCPR [10] = target: T1, AgCPR; experiment: Cytochrome c and NADPH steady-state kinetics, AgCPR; assay type: biochemical; conditions: phosphate buffer, 50 µM NADPH, 25°C; read-out: Km cytc
# Procedure: as §4
# [11] = target: T6, isolated apo-human FMN-binding domain of CPR (Homo sapiens, UniProt P16435); experiment: Isothermal titration calorimetry of FMN with apo-human FMN-binding domain; conditions: ITC, 25°C, 100 mM BES
# T6 sequence (P16435 80-224 limits assumed): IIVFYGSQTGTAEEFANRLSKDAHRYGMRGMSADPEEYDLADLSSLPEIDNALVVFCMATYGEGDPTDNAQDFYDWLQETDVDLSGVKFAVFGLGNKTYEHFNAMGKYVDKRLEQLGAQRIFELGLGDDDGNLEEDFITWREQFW
# Procedure: as §1
# (§2) The binding affinity of FMN to the isolated FMN-binding domains of both A. gambiae and hCPR were also examined by titration of the apo-FMN binding domains (Figure 4). Both isotherms show reasonable binding and saturation of the apo-proteins is achieved with excess flavin.
# [12] = target: isolated apo-A. gambiae FMN-binding domain of CPR (Anopheles gambiae, UniProt Q86QH5); experiment: Isothermal titration calorimetry of FMN with apo-A. gambiae FMN-binding domain; conditions: ITC
# Procedure: as §1, §2
# [13] = target: human anchorless NADPH-cytochrome P450 oxidoreductase (hCPR) (human) (UniProt P16435)
# human anchorless NADPH-cytochrome P450 oxidoreductase (hCPR) (human), sequence (P16435 2-21): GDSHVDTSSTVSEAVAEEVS
# [14] = target: Δ63AgCPR (Anopheles gambiae NADPH-cytochrome P450 oxidoreductase lacking the N-terminal membrane anchor) (Anopheles gambiae)
# [15] = IC50 (±S.E.), inhibition of cytochrome c reduction, Human CPR, Phosphate Buffer (0.3 M potassium phosphate pH 7.7), 15 µM NADPH, 50 µM cytochrome c, 25°C
# [16] = read-out: IC50 (±S.E.), inhibition of cytochrome c reduction
# [17] = 25°C, 100 mM BES, A. gambiae apo-FMN domain
# horse heart cytochrome c, sequence (P00004 whole entry): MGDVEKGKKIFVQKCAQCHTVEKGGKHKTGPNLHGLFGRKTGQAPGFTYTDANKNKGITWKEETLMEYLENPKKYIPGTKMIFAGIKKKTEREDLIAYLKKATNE
molecule,measurement,setting,value
"Nc1ncnc2c1ncn2[C@@H]1O[C@H](COP(=O)(O)O)[C@@H](O)[C@H]1OP(=O)(O)O [2′,5′-ADP]",IC50 of AgCPR relative to hCPR (fold higher),AgCPR [1]; both phosphate and phosphate-free buffer,6–10 fold
same,"affinity for mosquito CPR lower than human (fold, from IC50)",AgCPR [1]; phosphate-free Tris buffer,6 fold
same,Kd,[2],~0.5 µM
same,IC50,hCPR [3]; [15],28 ± 2 µM
same,Kd,[4],0.41 ± 0.018 µM
same,binding (Kd) to AgCPR weaker than hCPR (fold),[4]; ITC,~10 fold
same,Kobs,[4]; ITC,24.4±1.07 ×10^5 M^−1
same,TΔS,[4]; ITC,-4.73 kcal/mol
same,n (binding stoichiometry),[4]; ITC,1.01±0.03
same,ΔG,[4]; ITC,-8.40 kcal/mol
same,ΔH,[4]; ITC,-13.13 kcal/mol and -13.13 ± 0.35 kcal/mol
same,Kobs,hCPR (human CPR),263±26.3 ×10^5 M^−1
same,TΔS,hCPR (human CPR),-9.97 kcal/mol
same,n (binding stoichiometry),hCPR (human CPR),1.00±0.02
same,ΔG,hCPR (human CPR),-10.39 kcal/mol
same,ΔH,hCPR (human CPR),-20.36 kcal/mol and -20.36 ± 0.53 kcal/mol
"Nc1ncnc2c1ncn2[C@@H]1O[C@H](CO)[C@@H](O)[C@H]1OP(=O)(O)O [2′-AMP, adenosine 2′-monophosphate]",IC50,AgCPR [5],1090 ± 202 µM
same,IC50,AgCPR [6],384 ± 27 µM
same,Kd,hCPR [7],1.6 ± 0.44 µM
same,IC50,hCPR [8],280 ± 25 µM
"cytochrome c: horse heart cytochrome c, surrogate electron acceptor for measuring diflavin reductase activity",Km,hCPR [9],19 µM
same,Km,AgCPR [10],23 µM
NADP^+,Kobs,hCPR (human CPR),145±24.5 ×10^5 M^−1
same,TΔS,hCPR (human CPR),-8.91 kcal/mol
same,n (binding stoichiometry),hCPR (human CPR),1.01±0.12
same,ΔG,hCPR (human CPR),-10.55 kcal/mol
same,ΔH,hCPR (human CPR),-19.46 kcal/mol and -19.46 ± 2.92 kcal/mol
Nc1ncnc2c1ncn2[C@@H]1O[C@H](CO)[C@@H](O)[C@H]1OP(=O)(O)O [2′-AMP],IC50,AgCPR [1]; [16],468 µM
same,IC50,hCPR [3]; [15],1090 µM
same,IC50,hCPR [3]; [16],468 ± 41 µM
same,Kd,[4],4 ± 0.18 µM
same,Kobs,[4]; ITC,2.51±0.11 ×10^5 M^−1
same,TΔS,[4]; ITC,-2.19 kcal/mol
same,n (binding stoichiometry),[4]; ITC,1.01±0.22
same,ΔG,[4]; ITC,-5.47 kcal/mol
same,ΔH,[4]; ITC,-7.66 ± 1.98 kcal/mol
same,Kobs,hCPR (human CPR),6.15±1.69 ×10^5 M^−1
same,TΔS,hCPR (human CPR),-3.21 kcal/mol
same,n (binding stoichiometry),hCPR (human CPR),1.02±0.06
same,ΔG,hCPR (human CPR),-7.86 kcal/mol
same,ΔH,hCPR (human CPR),-11.07 ± 0.88 kcal/mol
"Nc1ncnc2c1ncn2[C@@H]1O[C@H](COP(=O)(O)O)[C@@H](O)[C@H]1OP(=O)(O)O [2′,5′-ADP, adenosine 2′,5′-diphosphate]",IC50,AgCPR [5],262 ± 18 µM
same,IC50,AgCPR [6],62 ± 7 µM
same,Kd,hCPR [7],0.038 ± 0.0038 µM
same,IC50,hCPR [8],10 ± 1 µM
"Cc1cc2nc3c(=O)[nH]c(=O)nc-3n(C[C@H](O)[C@H](O)[C@H](O)COP(=O)(O)O)c2cc1C [FMN, flavin mononucleotide]",Kd,[11],0.023 ± 0.0009 µM
same,Kobs,[11],438±17.5 ×10^5 M^−1
same,n (binding stoichiometry),[11],1.00±0.01
same,ΔG,[11],-10.28 kcal/mol
same,ΔH,[11],-19.46 ± 0.35 kcal/mol
same,FMN binding to A. gambiae FMN domain weaker than human domain (fold),[12],~4 fold
same,Kd,[12]; [17],0.083 ± 0.002 µM
same,Kobs,[12]; [17],120±3.19 ×10^5 M^−1
same,TΔS,[12]; [17],-3.58 kcal/mol
same,n (binding stoichiometry),[12]; [17],0.98±0.01
same,ΔG,[12]; [17],-9.60 kcal/mol
same,ΔH,[12]; [17],-13.18 ± 0.19 kcal/mol
horse heart cytochrome c (from UniProt P00004 1-105) (natural protein),"Km^cytc of NADPH-dependent cytochrome c reduction (steady state, 0-110 µM cytochrome c, phosphate buffer, 25°C)",[13],19 µM
same,"Km^cytc of NADPH-dependent cytochrome c reduction (steady state, 0-110 µM cytochrome c, phosphate buffer, 25°C)",[14],23 µM
c1ccc([I+]c2ccccc2)cc1 [diphenyliodonium chloride],IC50,AgCPR [1],28 ± 2 µM
same,AgCPR more sensitive to inhibition than hCPR (fold),"AgCPR [1]; cytochrome c reduction, phosphate buffer",~10 fold

# Reference: PMC3105092 (PLoS ONE, 2011)
